In brackets after ≈: the same amount, converted by molar mass.
Tests used:
MCF7 = assay: Cytotoxicity against human MCF7 cells; format: functional, cell-based
MDA-MB-231 = assay: Cytotoxicity against human MDA-MB-231 cells; format: functional, cell-based
[1] = Cytotoxicity against human SKBR3 cells; format: functional, cell-based; conditions: SK-BR-3
[2] = test system: Vesicular stomatitis virus; assay: Antiviral activity against Vesicular stomatitis virus assessed as protection against virus-induced cytopathogenic effect by cell based assay; format: functional; conditions: read-out: ID50 (the source's name)
Human respirovirus 3 = assay: Antiviral activity against Parainfluenza type 3 assessed as protection against virus-induced cytopathogenic effect by cell based assay; format: functional; conditions: read-out: ID50 (the source's name)
Yellow fever virus = assay: Antiviral activity against Yellow fever virus assessed as protection against virus-induced cytopathogenic effect by cell based assay; format: functional; conditions: read-out: ID50 (the source's name)
[3] = Cytotoxicity against mouse leukemia cells; format: functional, cell-based; conditions: Leukemia cell
[4] = biological target: T1, Type-2 angiotensin II receptor (Rattus norvegicus, UniProt P35351); assay: Inhibition of rat AT2 receptor
T1 sequence (P35351 whole entry): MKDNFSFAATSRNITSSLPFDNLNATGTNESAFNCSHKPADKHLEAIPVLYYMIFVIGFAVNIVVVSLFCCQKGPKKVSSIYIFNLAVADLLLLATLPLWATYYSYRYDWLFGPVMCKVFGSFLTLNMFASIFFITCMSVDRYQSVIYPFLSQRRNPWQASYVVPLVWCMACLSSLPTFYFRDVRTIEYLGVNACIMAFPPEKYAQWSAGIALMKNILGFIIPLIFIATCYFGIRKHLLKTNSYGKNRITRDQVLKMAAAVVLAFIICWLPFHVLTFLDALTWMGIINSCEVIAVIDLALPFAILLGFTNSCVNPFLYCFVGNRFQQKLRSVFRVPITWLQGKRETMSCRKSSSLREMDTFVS

Cerebral cortex = assay: Inhibition of GABA uptake in rat cerebral cortex; format: functional, tissue-based
[5] = test system: Classical swine fever virus; assay: Antiviral activity against Classical swine fever virus assessed as protection of viral infection by cell based assay; format: functional

| Structure (SMILES) | IC50 (MCF7) [nM] | IC50 (MDA-MB-231) [nM] | IC50 [1] [nM] | further results |
| --- | --- | --- | --- | --- |
| Nc1nccc2c1ncn2C1C=C(CO)C(O)C1O (configuration not stated) [3-DEAZANEPLANOCIN A] | < 250 | < 250 | < 250 | IC50 [2]: 0.02 µg/mL (≈ 0.0763 µM); IC50 (Human respirovirus 3): 0.02 µg/mL (≈ 0.0763 µM); IC50 (Yellow fever virus): 0.02 µg/mL (≈ 0.0763 µM) |
| OC[C@H]1O[C@@H](n2cnc3/c(=N\O)[nH]cnc32)[C@H](O)[C@@H]1O | – | – | – | IC50 [3]: 900 nM |
| Nc1nccc2c1ncn2[C@@H]1O[C@H](CO)[C@@H](O)[C@H]1O | < 100 | < 100 | < 100 | – |
| COc1ccc(CN2C=NC3CN(C(=O)C(c4ccccc4)c4ccccc4)C(C(=O)O)CC32)cc1C (configuration not stated) | – | – | – | IC50 [4]: 34 nM |
| O=C(O)C1Cc2[nH]cnc2CN1 (configuration not stated) | – | – | – | IC50 (Cerebral cortex): 270000 nM |
| Nc1ncnc2c1ncn2[C@@H]1C=C(CO)[C@@H](O)[C@H]1O [NEOPLANOCIN A] | < 25000 | < 25000 | < 25000 | – |
| OC[C@H]1O[C@@H](n2cnc3c(NO)cc(Cl)nc32)[C@H](O)[C@@H]1O | – | – | – | IC50 [3]: 900 nM |
| Brc1ccc(Cn2ccc3nc(-c4ccccc4)nc-3c2)cc1 | – | – | – | EC50 [5]: 800 nM |
